# Experimental data: patent US6852328B1, “Method and device for protection of wooden objects proximate soil from pest invasion” (priority 1989, dated 2005)
# Key:
# Assay type in all cases: physicochemical
# [1] = Release rates of pesticide/polymer combinations, one inch squares cut from 1/8 inch sheets (Example 1); settings: 10% pesticide
# Text: The following controlled release devices were made and tested to obtain their release rates (Table 1). The devices were made as follows. All devices, except for those employing S-113 urethane, were injection molded into a thin sheet about ⅛ inch thick. The device employing S-113 urethane was case, a method typically used for thermoset polymers. All thermoplastics were formulated using sufficient amount of carbon black to carry pesticides. All thermoplastic polymers were formulated with 10 percent pesticide, 3 or 7 percent carbon black to absorb liquid pesticide and 87 to 83 percent by weight of polymer. Specifically, devices made from thermoplastic polymers and deltamethrin and lambdacyhalothrin contained 3 percent of carbon black. The devices made from the remaining pesticides and thermoplastic polymers contained 7 percent of carbon black.
# The devices made from S-113 urethane (a thermoset polymer) were made from a polymer mix containing 60% S-113, 40% castor oil, and 5% of TIPA catalyst by weight. The polymer mix comprised 90% of the total weight of the device. The pesticide, deltamethrin, comprised the remaining 10% of the device. No carbon black was used in this device. The polymer/pesticide mixture was cast, using a spin caster into a ⅛ inch thick sheet and heated at about 60° C. for about 40 to 60 minutes to cure the cast sheet.
# One inch squares were then cut from the thin sheets that were injection molded or cast, and the squares were tested for release rates as shown in Table 1.
# [2] = Release rate and longevity of encapsulated two-part construction (Example 3); settings: two-part device about 100 g, inner part 60 wt % pesticide, 40 wt % carrier, outer part HDPE 120 mil
# Text: A device having an inner part surrounded by or encapsulated by an outer part is constructed having an overall mass of about 100 g. The inner part contains 60 wt % pesticide and 40 wt % carrier. The outer part is high density polyethylene of a thickness of 120 mil.
# [3] = Release rate and longevity of pellet (Example 4); settings: pellet about 100 g, about 150 cm^2, 70 wt % HDPE, 20 wt % pesticide, 10 wt % carrier
# Text: A pellet is made having a mass of about 100 g and a surface area of about 150 cm^2. The polymer is 70 wt % high density polyethylene, with 20 wt % pesticide and 10 wt % carrier. Comparing Table 4 to Table 3, it is evident that the encapsulated two-part construction provides longer life than the pellet.
# [4] = Release rate and longevity of high density polyethylene sheets as a function of thickness and temperature (Example 2); settings: 10 wt % pesticide, 10 wt % carrier; for Longevity @ 23° C. / Longevity @ 35° C.: 80 wt % HDPE; for Release Rate @ 23° C.: sheet, 80 wt % high density polyethylene (MA 778000), 60 mil
# Text: Controlled release devices in the form of sheets are made having 10% wt % pesticide, 10 wt % carrier and 80 wt % high density polyethylene (MA 778000).
# [5] = polymer EVA 763, injection molded 1/8 inch sheet, 3 or 7% carbon black
# [6] = polymer Polyethylene MA78000, injection molded 1/8 inch sheet, 3 or 7% carbon black
# [7] = polymer polyurethane 2200, injection molded 1/8 inch sheet, 3 or 7% carbon black
# [8] = polymer polyurethane 3100, injection molded 1/8 inch sheet, 3 or 7% carbon black
SMILES,"Release Rate [1, 5]","Release Rate [1, 6]","Release Rate [1, 7]","Release Rate [1, 8]",Longevity @ 23° C. [2],Release Rate @ 23° C. [2],Longevity @ 35° C. [2],Longevity @ 23° C. [3],Release Rate @ 23° C. [3],Longevity @ 35° C. [3],Longevity @ 23° C. ([4]; sheet thickness 60 mil),Longevity @ 35° C. ([4]; sheet thickness 60 mil),Longevity @ 23° C. ([4]; sheet thickness 120 mil),Longevity @ 35° C. ([4]; sheet thickness 120 mil),Longevity @ 23° C. ([4]; sheet thickness 240 mil),Longevity @ 35° C. ([4]; sheet thickness 240 mil),Release Rate @ 23° C. [4],further results
CC1(C)C(C=C(Cl)Cl)C1C(=O)OC(C#N)c1cccc(Oc2ccccc2)c1 (stereo not drawn) [Cypermethrin],27.3 μg/cm2/day,4.6 μg/cm2/day,0.7 μg/cm2/day,0.4 μg/cm2/day,–,–,–,–,–,–,–,–,–,–,–,–,–,–
Oc1ccc(Cl)cc1Cc1cc(Cl)ccc1O [Dichlorophen],–,6.2 μg/cm2/day,–,–,56 years,24 μg/cm^2/day,28 years,33 years,11 μg/cm^2/day,16 years,1.6 years,1.4 years,3.3 years,3.0 years,6.8 years,6.4 years,6.2 μg/cm^2/day,–
CC1(C)[C@H](C(=O)O[C@H](C#N)c2cccc(Oc3ccccc3)c2)[C@@H]1C=C(Br)Br [Deltamethrin],–,–,–,–,–,–,–,–,–,–,–,–,–,–,–,–,–,"Release Rate ([1]; polymer Alipmtic PS-49-100, injection molded 1/8 inch sheet, 3% carbon black): 7.2 μg/cm2/day; Release Rate ([1]; polymer Aromatic 80A, injection molded 1/8 inch sheet, 3% carbon black): 16.8 μg/cm2/day; Release Rate ([1]; polymer S-113 urethane (thermoset), cast 1/8 inch sheet, no carbon black): 25.2 μg/cm2/day; Release Rate ([1]; polymer pellethane 2102-55D, injection molded 1/8 inch sheet, 3% carbon black): 8.0 μg/cm2/day; Release Rate ([1]; polymer pellethane 2102-80A, injection molded 1/8 inch sheet, 3% carbon black): 8.8 μg/cm2/day"
CCOP(=S)(OCC)Oc1cc(C)nc(C(C)C)n1 [Diazinon],–,–,–,–,39 years,28 μg/cm^2/day,24 years,8.1 years,45 μg/cm^2/day,5.1 years,1.1 years,0.6 years,2.3 years,1.3 years,4.8 years,2.7 years,11.7 μg/cm^2/day,–
CC1(C)[C@H](C(=O)O[C@H](C#N)c2cccc(Oc3ccccc3)c2)[C@@H]1/C=C(\Cl)C(F)(F)F [Lambdacyhalothrin],20.6 μg/cm2/day,5.2 μg/cm2/day,2.0 μg/cm2/day,0.7 μg/cm2/day,–,–,–,–,–,–,–,–,–,–,–,–,–,–
c1ccc(-c2ccccc2)cc1 [Biphenyl],–,–,–,–,31 years,35 μg/cm^2/day,23 years,22 years,16 μg/cm^2/day,11 years,2.5 years,2.1 years,5.1 years,4.4 years,11.2 years,9.1 years,3.5 μg/cm^2/day,–
CC1(C)C(C=C(Cl)Cl)C1C(=O)OCc1cccc(Oc2ccccc2)c1 (stereo not drawn) [Permethrin],28.5 μg/cm2/day,4.0 μg/cm2/day,1.3 μg/cm2/day,1.4 μg/cm2/day,68 years,16 μg/cm^2/day,38 years,30 years,12 μg/cm^2/day,14 years,8.6 years,3.2 years,17 years,6.5 years,35 years,13 years,1.5 μg/cm^2/day,–
Cc1c(F)c(F)c(COC(=O)[C@@H]2[C@H](/C=C(\Cl)C(F)(F)F)C2(C)C)c(F)c1F (racemic) [Tefluthrin],40.4 μg/cm2/day,27.0 μg/cm2/day,25.0 μg/cm2/day,6.4 μg/cm2/day,35 years,31 μg/cm^2/day,18 years,33 years,11 μg/cm^2/day,16 years,9.1 years,3.1 years,18.2 years,5.9 years,39 years,10.4 years,1.3 μg/cm^2/day,–
